These results are taken from patent US20100168167A1, “Piperidinones Useful in the Treatment of Inflammation” (priority 2007, published 2010).

A word on the IC50: it is the concentration at which inhibition is half-maximal.

This assay concerns the target T1, PDE4 enzyme (U937 lysate or recombinant hPDE4).
T1 construct: cDNA containing PDE4D1 was cloned into a baculovirus vector, insect cells (SF9) were then infected and cells cultured to express the PDE4 protein
The assay can be described thus: In vitro inhibition of PDE4, Method A ([3H]cAMP SPA enzyme assay). The class given is biochemical, human. The note with it: Biological Example 1, Method A. As for the experimental part:
PDE4 U937 cytoplasmic extracts were prepared by a modified procedure of the assay described in MacKenzie, S. J. and Houslay, M. D., “Action of rolipram on specific PDE4 cAMP phosphodiesterase isoforms and on the phosphorylation of cAMP-response-element-binding protein (CREB) and p38 mitogen-activated protein (MAP) kinase in U937 monocytic cells”, Biochem J. (2000), 347(Pt 2):571-8, by lysis of U937 cells (ATCC: Catalogue No. CRL-159) in M-PER Lysis buffer (Pierce) containing 10% protease inhibitor cocktail (Sigma). The cell lysates were then centrifuged at 30,000 rpm for 15 minutes at 4° C. The supernatants were aliquoted and stored at −80° C.
An alternative source of PDE4 enzymes was from recombinant human PDE4 obtained from baculovirus-SF9 cells expression system. cDNA containing PDE4D1 was cloned into a baculovirus vector, insect cells (SF9) were then infected and cells cultured to express the PDE4 protein. The cells were lysed and used directly in assay or partially purified using standard procedures. The process can be used for other PDE4 and PDE enzymes.
Compounds of the invention were evaluated for inhibitory activity against PDE4 enzymes by the following assay Method A or B.
PDE4 assay based on modified procedure of Phosphodiesterase [^3H]cAMP SPA Enzyme Assay (Amersham Biosciences, code TRKQ 7090). In this assay, PDE4 enzymes converts [^3H]cAMP to [^3H]5′-AMP. The assay is quenched by the addition of SPA yttrium silicate beads which preferentially bind linear nucleotides over cyclic nucleotides in the presence of zinc sulphate.
Reactions were performed in duplicate by the addition of 10 μl PDE4 enzyme (U937 lysate or recombinant hPDE4) to 20 μL of assay mix and 20 μL of test compounds in Isoplates (Wallac) for 30 minutes, at 37° C. The final assay mixture contained: 50 mM Tris (pH 7.5), 8.3 mM MgCl2, 1.7 mM EGTA and [^3H]cAMP (0.025 μCi) (Amersham). Assay was terminated by addition 25 μL SPA beads. The plate was sealed, shaken for 1 minute and then allowed to settle 30 minutes and the cpm determined using a Wallac Micobeta.
Regarding `COc1ccc([C@H]2CNC(=O)[C@H](Cc3cccnc3)C2)cc1OC1CCCC1` [(3S,5S)-5-(3-(cyclopentyloxy)-4-methoxyphenyl)-3-(3-pyridinylmethyl)piperidin-2-one], the IC50 was 489 nM.

For `COc1ccc([C@H]2CNC(=O)C(CC(=O)O)C2)cc1OC1CCCC1` (stereo partly drawn) [2-((5S)-5-(3-(cyclopentyloxy)-4-methoxyphenyl)-2-oxopiperidin-3-yl)acetic acid], the IC50 amounted to 1180 nM.

For `COc1ccc([C@@H]2CCC(=O)N(Cc3ccccc3)C2)cc1OC1CCCC1` [(S)-1-benzyl-5-(3-(cyclopentyloxy)-4-methoxyphenyl)piperidin-2-one], the IC50 is 430 nM.

Take `COc1ccc2oc(C[C@H]3C[C@@H](c4ccc(OC)c(OC5CCCC5)c4)CNC3=O)cc2c1` [(3R,5S)-5-(3-cyclopentyloxy-4-methoxyphenyl)-3-(5-methoxy-2-benzofurylmethyl)piperidin-2-one]: the concentration for half-maximal inhibition (IC50) turned out to be 373 nM.

In the case of `COc1ccc([C@@H]2CCC(=O)N(C(=O)c3ccccc3)C2)cc1OC1CCCC1` [(S)-1-benzoyl-5-(3-(cyclopentyloxy)-4-methoxyphenyl)piperidin-2-one], the IC50 turned out to be 187 nM.

On to `COc1ccc([C@H]2CNC(=O)/C(=C/c3cccc(C)c3)C2)cc1OC1CCCC1` [(S,E)-5-(3-(cyclopentyloxy)-4-methoxyphenyl)-3-(3-methylbenzylidene)piperidin-2-one], for which the IC50 is 389 nM.

Take `C=CCC1(CC=C)C[C@@H](c2ccc(OC)c(OC3CCCC3)c2)CNC1=O` [(S)-3,3-diallyl-5-(3-(cyclopentyloxy)-4-methoxyphenyl)piperidin-2-one]: the concentration for half-maximal inhibition (IC50) turned out to be 651 nM.

For the compound `COc1ccc([C@H]2CNC(=O)C(CC(=O)Nc3cccnc3)C2)cc1OC1CCCC1` (stereo partly drawn) [2-((5S)-5-(3-(cyclopentyloxy)-4-methoxyphenyl)-2-oxopiperidin-3-yl)-N-(pyridin-3-yl)acetamide], the 50% inhibitory concentration (IC50) was determined as 456 nM.

For the compound `COc1ccc([C@H]2CNC(=O)C(CC(O)CO)C2)cc1OC1CCCC1` (stereo partly drawn) [(5S)-5-(3-(cyclopentyloxy)-4-methoxyphenyl)-3-(2,3-dihydroxypropyl)piperidin-2-one], the IC50 was 446 nM.

On to `C=CCC1C[C@@H](c2ccc(OC)c(OC3CCCC3)c2)CNC1=O` (stereo partly drawn) [(5S)-3-allyl-5-(3-(cyclopentyloxy)-4-methoxyphenyl)piperidin-2-one], for which the IC50 was found to be 290 nM.

For the compound `COc1ccc([C@H]2CNC(=O)[C@@H](Cc3nc4cc([N+](=O)[O-])ccc4o3)C2)cc1OC1CCCC1` [(3R,5S)-5-(3-cyclopentyloxy-4-methoxyphenyl)-3-(5-nitro-2-benzoxazolylmethyl)piperidin-2-one], the IC50 was found to be 653 nM.

As to `COc1ccc([C@H]2CNC(=O)C(CCNc3ccccc3)C2)cc1OC1CCCC1` (stereo partly drawn) [(5S)-5-(3-(cyclopentyloxy)-4-methoxyphenyl)-3-(2-(phenylamino)ethyl)piperidin-2-one], the half-inhibitory concentration (IC50) turned out to be 215 nM.

With `COc1ccc([C@@H]2CCC(=O)NC2)cc1-c1ccccc1` [(S)-5-(6-methoxybiphenyl-3-yl)piperidin-2-one], the IC50 amounted to 146 nM.

Take `COc1ccc([C@H]2CNC(=O)[C@@H](CC3CCOC3)C2)cc1OC1CCCC1` (stereo partly drawn) [(3R,5S)-5-(3-(cyclopentyloxy)-4-methoxyphenyl)-3-((tetrahydrofuran-3-yl)methyl)piperidin-2-one]: the IC50 worked out at 1490 nM.
